Reference: US20240180817A1, “PLANT FERMENTED LIQUID, PLANT FERMENTED PRODUCT PRODUCED USING GLUCONOBACTER THAILANDICUS STRAIN AND USE THEREOF” (LG HOUSEHOLD & HEALTH CARE LTD., priority 2022, published 2024)

System: human keratinocyte HaCaT
Experiment: Hyaluronic acid synthesis, Quantikine ELISA Hyaluronan
Type: cell-based
Settings: 30 ppb, 72 hours
Description: Samples were treated with human keratinocyte HaCaT for 72 hours at each concentration. Hyaluronic acid synthesis was compared with the control group (DMEM treatment containing 0% serum) using Quantikine ELISA Hyaluronan from R&D Systems to quantify the moisturizing ability.

For `CC1=C(/C=C/C(C)=C/C=C/C(C)=C/C(=O)O)C(C)(C)CCC1` [Retinoic acid], the “Hyaluronic Acid Synthesis Ability” value was 18.6 % of control.
